Assay results as given in ChEMBL document CHEMBL5724914, “Linking interpersonal differences in gut microbiota composition and drug biotransformation activity” (2024).

Tests used:
[1] = (§1) The drug is tested on Z-028 corresponding to mouse gut metagenome with ENA study accession number: PRJEB37062 and ENA sample accession number: ERS12561827 for biotransformation under anaerobic condition. The drug concentrations were measured over 9 timepoints collected between 0 and 24 hours of incubation by liquid-chromatography-coupled mass spectrometry (LC–MS); conditions: 2 µM
[2] = as §1, with “Z-022” for “Z-028”, “ERS12561821” for “ERS12561827”; conditions: 2 µM
[3] = as §1, with “Z-018” for “Z-028”, “pig” for “mouse”, “ERS12561817” for “ERS12561827”; conditions: 2 µM
[4] = as §1, with “Z-011” for “Z-028”, “ERS12561811” for “ERS12561827”; conditions: 2 µM
[5] = as §1, with “Z-007” for “Z-028”, “rat” for “mouse”, “ERS12561807” for “ERS12561827”; conditions: 2 µM
[6] = as §1, with “Z-004” for “Z-028”, “to” for “to mouse gut”, “ERS12561804” for “ERS12561827”; conditions: 2 µM
[7] = as §1, with “Z-003” for “Z-028”, “pig” for “mouse”, “ERS12561803” for “ERS12561827”; conditions: 2 µM
[8] = as §1, with “WLS-220” for “Z-028”, “human” for “mouse”, “ERS12561769” for “ERS12561827”; conditions: 2 µM
[9] = as §1, with “WLS-170” for “Z-028”, “human” for “mouse”, “ERS12561762” for “ERS12561827”; conditions: 2 µM
[10] = as §1, with “WLS-086” for “Z-028”, “human” for “mouse”, “ERS12561752” for “ERS12561827”; conditions: 2 µM
[11] = as §1, with “WLS-069” for “Z-028”, “human” for “mouse”, “ERS12561748” for “ERS12561827”; conditions: 2 µM
[12] = as §1, with “WLS-027” for “Z-028”, “human” for “mouse”, “ERS12561744” for “ERS12561827”; conditions: 2 µM
[13] = human gut metagenome, 24 h, 2 µM
[14] = human gut metagenome, 24 h, 2 µM; remark: listed apart in the source
[15] = human gut metagenome, 24 h, 2 µM; remark: listed apart in the source
[16] = human gut metagenome, 24 h, 2 µM; remark: listed apart in the source
[17] = human gut metagenome, 24 h, 2 µM; remark: listed apart in the source
[18] = human gut metagenome, 24 h, 2 µM; remark: listed apart in the source
[19] = human gut metagenome, 24 h, 2 µM; remark: listed apart in the source
[20] = human gut metagenome, 24 h, 2 µM; remark: listed apart in the source
Also: call rule not given here.

SMILES	Bacterial Biotransformation [1]	Bacterial Biotransformation [2]	Bacterial Biotransformation [3]	Bacterial Biotransformation [4]	Bacterial Biotransformation [5]	Bacterial Biotransformation [6]	Bacterial Biotransformation [7]	Bacterial Biotransformation [8]	Bacterial Biotransformation [9]	Bacterial Biotransformation [10]	Bacterial Biotransformation [11]	Bacterial Biotransformation [12]	Bacterial Biotransformation [13]	Bacterial Biotransformation [14]	Bacterial Biotransformation [15]	Bacterial Biotransformation [16]	Bacterial Biotransformation [17]	Bacterial Biotransformation [18]	Bacterial Biotransformation [19]	Bacterial Biotransformation [20]
N#Cc1ccc(C(c2ccc(C#N)cc2)n2cncn2)cc1 [LETROZOLE]	Compound NOT metabolized	Compound metabolized	Compound NOT metabolized	Compound NOT metabolized	Compound NOT metabolized	Compound NOT metabolized	Compound NOT metabolized	Compound NOT metabolized	Compound NOT metabolized	Compound NOT metabolized	Compound NOT metabolized	Compound NOT metabolized	Compound NOT metabolized	Compound NOT metabolized	Compound NOT metabolized	Compound NOT metabolized	Compound NOT metabolized	Compound NOT metabolized	Compound NOT metabolized	Compound NOT metabolized
CC(Oc1c(Cl)cccc1Cl)C1=NCCN1 (stereo not given) [LOFEXIDINE]	Compound NOT metabolized	Compound NOT metabolized	Compound NOT metabolized	Compound NOT metabolized	Compound NOT metabolized	Compound NOT metabolized	Compound NOT metabolized	Compound NOT metabolized	Compound metabolized	Compound metabolized	Compound NOT metabolized	Compound metabolized	Compound NOT metabolized	Compound NOT metabolized	Compound NOT metabolized	Compound NOT metabolized	Compound NOT metabolized	Compound metabolized	Compound NOT metabolized	Compound metabolized
CN(C)C(=O)C(CCN1CCC(O)(c2ccc(Cl)cc2)CC1)(c1ccccc1)c1ccccc1 [LOPERAMIDE]	Compound metabolized	Compound metabolized	Compound metabolized	Compound NOT metabolized	Compound NOT metabolized	Compound metabolized	Compound metabolized	Compound metabolized	Compound metabolized	Compound metabolized	Compound metabolized	Compound metabolized	Compound metabolized	Compound metabolized	Compound metabolized	Compound metabolized	Compound metabolized	Compound metabolized	Compound metabolized	Compound metabolized
CCCCc1nc(Cl)c(CO)n1Cc1ccc(-c2ccccc2-c2nn[nH]n2)cc1 [LOSARTAN]	Compound NOT metabolized	Compound NOT metabolized	Compound NOT metabolized	Compound NOT metabolized	Compound NOT metabolized	Compound NOT metabolized	Compound NOT metabolized	Compound metabolized	Compound metabolized	Compound metabolized	Compound metabolized	Compound metabolized	Compound metabolized	Compound metabolized	Compound metabolized	Compound metabolized	Compound metabolized	Compound metabolized	Compound NOT metabolized	Compound metabolized
COC(=O)Nc1nc2ccc(C(=O)c3ccccc3)cc2[nH]1 [MEBENDAZOLE]	Compound NOT metabolized	Compound metabolized	Compound metabolized	Compound metabolized	Compound metabolized	Compound metabolized	Compound metabolized	Compound metabolized	Compound metabolized	Compound metabolized	Compound metabolized	Compound metabolized	Compound NOT metabolized	Compound NOT metabolized	Compound metabolized	Compound metabolized	Compound metabolized	Compound metabolized	Compound metabolized	Compound metabolized
COc1ccccc1OCC(O)COC(N)=O (stereo not given) [METHOCARBAMOL]	Compound NOT metabolized	Compound NOT metabolized	Compound NOT metabolized	Compound NOT metabolized	Compound NOT metabolized	Compound NOT metabolized	Compound NOT metabolized	Compound NOT metabolized	Compound NOT metabolized	Compound NOT metabolized	Compound NOT metabolized	Compound NOT metabolized	Compound NOT metabolized	Compound NOT metabolized	Compound NOT metabolized	Compound NOT metabolized	Compound NOT metabolized	Compound NOT metabolized	Compound NOT metabolized	Compound NOT metabolized
CC[C@@H](CO)NC(=O)[C@@H]1C=C2c3cccc4c3c(cn4C)C[C@H]2N(C)C1.O=C(O)/C=C\C(=O)O [METHYSERGIDE MALEATE]	Compound NOT metabolized	Compound NOT metabolized	Compound NOT metabolized	Compound NOT metabolized	Compound NOT metabolized	Compound NOT metabolized	Compound NOT metabolized	Compound NOT metabolized	Compound metabolized	Compound metabolized	Compound NOT metabolized	Compound NOT metabolized	Compound NOT metabolized	Compound NOT metabolized	Compound NOT metabolized	Compound NOT metabolized	Compound NOT metabolized	Compound metabolized	Compound NOT metabolized	Compound metabolized
CCN(CC)CCNC(=O)c1cc(Cl)c(N)cc1OC [METOCLOPRAMIDE]	Compound NOT metabolized	Compound NOT metabolized	Compound NOT metabolized	Compound NOT metabolized	Compound NOT metabolized	Compound NOT metabolized	Compound NOT metabolized	Compound NOT metabolized	Compound NOT metabolized	Compound metabolized	Compound NOT metabolized	Compound NOT metabolized	Compound NOT metabolized	Compound NOT metabolized	Compound NOT metabolized	Compound NOT metabolized	Compound NOT metabolized	Compound NOT metabolized	Compound NOT metabolized	Compound metabolized
